Values of other authors, collected in patent US6197304A, “Whitening cosmetics containing solvent-fractionated extracts of ramulus mori extract” (priority 1997, dated 2001).
“Also recorded” adds a separate entry of the source.

Experiments:
tyrosinase = details: prior art
skin = details: prior art

Row | Structure (SMILES) | tyrosinase inhibition / whitening activity (in words) (tyrosinase) | skin irritation (in words) (skin)
1 | O=C1O[C@H]([C@@H](O)CO)C(O)=C1O [Ascorbic acid, ascorbic acid] | relatively low activity of inhibiting tyrosinase | –
2 | O=c1cc(CO)occ1O [Comparative 3, kojic acid] | high activity; also recorded: relatively high whitening effect | –
3 | Oc1ccc(O)cc1 [Hydroquinone, hydroquinone] | – | irritates the skin strongly
